Several values for one entry are separate records, joined by “and”; a condition that tells them apart may be missing. Identical values can stand only once. Entries after “also recorded” stand apart in the source; their conditions may differ. Like-named read-outs stand apart in the source and are kept apart here.
How the values were obtained:
[1] = test system: lymphocytic leukemia P388; assay type: in vivo, murine; conditions: for survivors, P388: Table XI, parentheses, per 6
B16 melanocarcinoma = assay type: in vivo, murine
Lewis lung carcinoma = Lewis lung carcinoma test (subcutaneous implant, IP drug); assay type: in vivo, murine
Text: ^c Subcutaneous tumor implantation, ip QD515 treatment schedule.

lymphoid leukemia L1210 [2] = assay type: in vivo, murine
Text: (§1) A third IC tumor model, the ependymoblastoma system, was also studied. This system requires intracerebral implantation of a solid tumor fragment while the IC L1210 and IC P388 systems utilize IC inoculated ascites tumor fluid. All three use IP drug treatment however. […] Cures (survivors from the group of six mice on the last day of the experiment) are indicated.

[3] = test system: lymphocytic leukemia P388; test: Intracerebral (IC) P388 antitumor test; assay type: in vivo, murine; conditions: for ILS: IP
Text: as §1

ependymoblastoma = assay type: in vivo, murine; conditions: for survivors, EM: parentheses, per 6
Text: ^c Ic tumor implantation, ip QD15 treatment schedule.
as §1

[4] = Approximation of human dose from mouse optimum dose; conditions: approximated from optimum dose of 2 mg/kg in the mouse
Description: Using the assumptions and constants of Freireich et al., Cancer Chemother. Rep., 50, 219 (1966), and an optimum dose of 2 mg/kg in the mouse, an average human maximum tolerated dose of 10 mg per dose can be approximated. An active dose range of 2.5-10 mg per dose can be estimated.

lymphoid leukemia L1210 [5] = test system: lymphoid leukemia L1210
Description: ^b Ip tumor implantation, ip QD19 treatment schedule.
^e ILS = [(treated survival + control survival) × 100%] - 100%
The L1210, P388 and B16 test systems described in Table II utilize intraperitoneal (IP) tumor implantation and IP drug treatment while the Lewis lung system employs subcutaneous tumor implantation and IP treatment. All three CNS tumor models (Table III) use intracerebral (IC) tumor implantation and IP treatment.
Aqueous saline solution (0.9%) was used as the drug vehicle. Normally, five doses were employed per experiment with the top dose chosen to produce toxicity. The lower doses were 50% of each preceeding dose.
Consistent with NCI antitumor test protocols, intraperitoneal (IP) administration of the drug was employed with all five tumor systems investigated. Tumor implantation was IP in the systems designated IP leukemia L1210 and P388 as well as B16 melanoma. Intracerebral (IC) tumor implantation was utilized in the IC L1210 and ependymoblastoma tumor systems.

[6] = Room temperature water solubility; assay type: physicochemical
Description: In the following examples, all melting points are uncorrected and were recorded on a Thomas-Hoover capillary melting point apparatus. Elemental analyses were performed by NIAMDD, NIH, Bethesda, Md. Fluoranil, ethyleneimine and 2-methylethyleneimine were obtained commercially. […] New compounds were identified by nmr and ir spectroscopy. In the tetraamino derivatives, the methylene protons of the aziridine rings usually occurred as a singlet at δ2.0-2.2 in CDCl3 or DMSO-d6. This absorption appeared at δ2.40 (CDCl3) for compound 11. Carbonyl absorption frequencies (nujol mull) occurred in the range 1620-1640 cm^-1 for the tetraamino compounds. Satisfactory elemental analyses (+0.4% of calculated values) are indicated by elemental symbols in Table VII. Room temperature water solubilities were determined by the incremental addition (pipet) of water to a weighed amount of compound with shaking. The solubility values in Table VII must be considered as approximate.

[7] = reported; Europe / Japan; cited from earlier work
[8] = IP, QD1-9, 1.56 mg/kg/injection
[9] = IP, QD1-9, 3.12 mg/kg/injection
[10] = IP, QD1-9, 6.25 mg/kg/injection

With `CCOC(=O)NC1=C(N2CC2)C(=O)C(NC(=O)OCC)=C(N2CC2)C1=O` [Compound 9, 2,5-DIAZIRIDINYL-3,6-BIS(CARBOETHOXYAMINO)-1,4-BENZOQUINONE] the “activity in IP P388” value [1] was “very active”, the “optimum dose (OD)” value [1] was 1 to 2 mg/kg and the ILS ([1]; IP, QD1-9, 0.78 mg/kg/injection) was 111% and 99%. For the same compound, the OD ([1]; Table IV, QD1-9) was 1.6 mg/kg/injection and 0.8 mg/kg/injection, the “survivors of 6 test mice” value ([1]; Table IV, day 30) was 1 and the “survivors, P388” value [1] was 1. For the same compound, the T-C weight change ([1]; day 5, QD1-9, 6.25 mg/kg/injection) was -6.1 grams, the OD (B16 melanocarcinoma) was 3.12 mg/kg and the “activity in B16 melanoma” value (B16 melanocarcinoma) was “very active”. The ILS (B16 melanocarcinoma; [8]) was 38% and 44% and 58%, the ILS (B16 melanocarcinoma; [9]) was 58% and 43% and 70% and the “% ILS” value (B16 melanocarcinoma; Table IV summary, QD1-9, at OD) was 94% and 70% and 62%. For the same compound, the OD (B16 melanocarcinoma; Table IV, QD1-9) was 3 mg/kg/injection, the “activity (ILS)” value (B16 melanocarcinoma; as high as, at OD of 3.12 mg/kg) was no more than 70% and the “activity in Lewis lung” value (Lewis lung carcinoma) was “Marginal activity”. The ILS (Lewis lung carcinoma; IP, 2.00 mg/kg/injection, 2 mg/kg) was 38% and 34%, the OD (lymphoid leukemia L1210 [2]) was 3.12 mg/kg and the “activity in IC L1210” value (lymphoid leukemia L1210 [2]) was “reproducible activity; also recorded: substantial”. For the same compound, the ILS (lymphoid leukemia L1210 [2]; [8]) was 51% and 46%, the ILS (lymphoid leukemia L1210 [2]; [9]) was 84% and 79% and the ILS (lymphoid leukemia L1210 [2]; [10]) was 10% and 3%. For the same compound, the “% ILS” value (lymphoid leukemia L1210 [2]; Table IV summary, QD1-9, at OD) was 84% and 79% and 63% and 58%, the OD (lymphoid leukemia L1210 [2]; Table IV, QD1-9) was 3 mg/kg/injection and 5 mg/kg/injection and the ILS (lymphoid leukemia L1210 [2]; at OD 3.12 mg/kg) was 79% and 84%. For the same compound, the “activity in IC P388” value [3] was “reproducible activity; also recorded: substantial”, the ILS ([3]; QD1-9, 0.39 mg/kg/injection) was 7% and 2% and the ILS ([3]; QD1-9, 0.78 mg/kg/injection) was 27% and 25%. The ILS ([3]; QD1-9, 1.56 mg/kg/injection) was 37% and 51%, the ILS ([3]; QD1-9, 3.12 mg/kg/injection) was 39% and 31% and the “% ILS” value ([3]; Table IV summary, QD1-9, at OD) was 51% and 39%. The OD ([3]; Table IV, QD1-9) was 1.5 mg/kg/injection and 3 mg/kg/injection, the “activity in ependymoblastoma” value (ependymoblastoma) was “curative in the EM system; also recorded: very active” and the optimum dose (ependymoblastoma) was 1 to 2 mg/kg. For the same compound, the “Cures (animals alive per six)” value (ependymoblastoma; 1.00 mg/kg/injection, day 60 (expts 136/144)) was 1/6 and 5/6, the “Cures (animals alive per six)” value (ependymoblastoma; 1.00 mg/kg/injection, day 99 (expt 133)) was 3/6 and the “Cures (animals alive per six)” value (ependymoblastoma; 2.00 mg/kg/injection, day 60 (expts 136/144)) was 5/6. The “Cures (animals alive per six)” value (ependymoblastoma; 2.00 mg/kg/injection, day 99 (expt 133)) was 4/6, the “Cures (animals alive per six)” value (ependymoblastoma; 4.00 mg/kg/injection, day 60) was 4/6 and the ILS (ependymoblastoma; QD1-5, 0.25 mg/kg/injection, expt 144) was 30%. For the same compound, the ILS (ependymoblastoma; QD1-5, 0.50 mg/kg/injection, expt 144) was 62%, the ILS (ependymoblastoma; QD1-5, 1.00 mg/kg/injection, expt 133 (day 99)) was 348% and the ILS (ependymoblastoma; QD1-5, 1.00 mg/kg/injection, expts 136/144 (day 60)) was 126% and 171%. For the same compound, the ILS (ependymoblastoma; QD1-5, 2.00 mg/kg/injection, expt 133 (day 99)) was 349%, the ILS (ependymoblastoma; QD1-5, 4.00 mg/kg/injection, expt 136 (day 60)) was 276% and the OD (ependymoblastoma; Table IV, QD1-5) was 2 mg/kg/injection and 1 mg/kg/injection. For the same compound, the “survivors of 6 test mice” value (ependymoblastoma; Table IV, day 60) was 5 and 4 and 6, the “ILS (%) EM” value (ependymoblastoma; Table XI, outstanding activity) was 277% and the “survivors, EM” value (ependymoblastoma; Table XI) was 5. For the same compound, the T-C weight change (ependymoblastoma; day 5, 0.25 mg/kg/injection) was -1.5 grams, the T-C weight change (ependymoblastoma; day 5, 0.50 mg/kg/injection) was -1.8 grams and the T-C weight change (ependymoblastoma; day 5, 8.00 mg/kg/injection) was -5.0 grams. The “average human maximum tolerated dose” value [4] was roughly 10 mg per dose, the “activity in IP L1210” value (lymphoid leukemia L1210 [5]) was “greater L1210 activity on the QD1-9 schedule; also recorded: very active” and the ILS (lymphoid leukemia L1210 [5]; IP, QD1-9, 0.88 mg/kg/injection) was 32%. The ILS (lymphoid leukemia L1210 [5]; IP, QD1-9, 1.30 mg/kg/injection) was 60%, the ILS (lymphoid leukemia L1210 [5]; IP, QD1-9, 2.00 mg/kg/injection) was 125% and the ILS (lymphoid leukemia L1210 [5]; [10]) was 27%. For the same compound, the “increase in life span (ILS)” value (lymphoid leukemia L1210 [5]; Q4D and QD1-9 schedules) was greater than 25%, the “% ILS” value (lymphoid leukemia L1210 [5]; Q4D schedule) was 54% and the “optimum dose (OD)” value (lymphoid leukemia L1210 [5]; QD1-9, mouse) was 2 mg/kg and 2 to 3 mg/kg. For the same compound, the ILS (lymphoid leukemia L1210 [5]; QD1-9, reproducible) was greater than 100%, the “% ILS” value (lymphoid leukemia L1210 [5]; Table IV summary, QD1-9, at OD) was 100% and the OD (lymphoid leukemia L1210 [5]; Table IV, QD1-9) was 3 mg/kg/injection and 2 mg/kg/injection and 4 mg/kg/injection.
For `NC1=C(N2CC2)C(=O)C(N)=C(N2CC2)C1=O` [Compound 33, 2,5-DIZAIRIDINYL-3,6-DIAMINO-1,4-BENZOQUINONE], the OD ([1]; QD1-9, Table IX) was 0.2 mg/kg/injection, the ILS ([1]; QD1-9, at OD, Table IX) was 171% and 156% and the “animals alive per 6” value ([1]; QD1-9, day 30, at OD, Table IX) was 1. For the same compound, the “survivors, P388” value [1] was 1, the ILS (B16 melanocarcinoma; QD1-9, at OD, Table IX) was 31% and 19% and the “activity in IC L1210” value (lymphoid leukemia L1210 [2]) was “most active; also recorded: significant activity”. The OD (lymphoid leukemia L1210 [2]; QD1-9, Table X) was 0.3 mg/kg/injection, the ILS (lymphoid leukemia L1210 [2]; QD1-9, at OD, Table X) was 60% and 59% and the “activity in ependymoblastoma” value (ependymoblastoma) was “among the most active materials”. The OD (ependymoblastoma; QD1-5, Table X) was 0.2 mg/kg/injection, the ILS (ependymoblastoma; QD1-5, at OD, Table X) was 215% and 177% and the “animals alive per 6” value (ependymoblastoma; QD1-5, day 60, at OD, Table X) was 4 and 6. The “survivors, EM” value (ependymoblastoma; Table XI) was 6, the “solubility” value [6] was “so insoluble in any solvent” and the OD (lymphoid leukemia L1210 [5]; Day 1 only (1 injection), Table VIII) was 1.0 mg/kg/injection and 0.5 mg/kg/injection. The ILS (lymphoid leukemia L1210 [5]; Q4D, at OD, Table VIII) was 161% and 124%, the “animals alive per 6” value (lymphoid leukemia L1210 [5]; Q4D, day 30, at OD, Table VIII) was 3 and 2 and the OD (lymphoid leukemia L1210 [5]; QD1-9 (9 injections), Table VIII) was 0.4 mg/kg/injection and 0.3 mg/kg/injection. The ILS (lymphoid leukemia L1210 [5]; QD1-9, at OD, Table VIII) was 115% and 100% and the “survivors, IP L1210” value (lymphoid leukemia L1210 [5]; Table XI, parentheses, per 6) was 3.
For `COC(COC(N)=O)C1=C(N2CC2)C(=O)C(C)=C(N2CC2)C1=O` (stereo not drawn) [Compound 30, carbazilquinone], the “clinical activity” value [7] is listed as “Clinical activity has been reported”.
